Measured values taken from PubChem BioAssay AID1963981 (Molecular Pharmacology Branch, DTP, NCI, 2024).
Values belong to the compound of their own block, whether it stands above or below them.

Tested on: 354836-022-R-J1-PDC multicell spheroid viability
Assay: Anticancer human tumor 354836-022-R-J1-PDC patient-derived head and neck squamous cell carcinoma cell line growth inhibition [PI3K]
Conditions: for IC50: curve of first compound; for viability, T/C: stronger effect = lower value
Procedure, shortened: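 Multi-cell spheroids combine tumor cells with HUVEC and human MSCs, treated with targeted agents alone or with inavolisib, alpelisib, duvelisib or copanlisib. Concentrations fall in half-log steps from at or near clinical Cmax, or from 10 microM where Cmax is unknown; viability read-out.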

[1] = second compound 0.0316 µM, first compound 0.0316 µM
[2] = second compound 0.0316 µM, first compound 0.1 µM
[3] = second compound 0.0316 µM, first compound 0.316 µM
[4] = second compound 0.0316 µM, first compound 1 µM
[5] = second compound 0.0316 µM, first compound 3.16 µM
[6] = second compound 0.0316 µM, first compound 10 µM
[7] = second compound 0.1 µM, first compound 0.0316 µM
[8] = second compound 0.1 µM, first compound 0.1 µM
[9] = second compound 0.1 µM, first compound 0.316 µM
[10] = second compound 0.1 µM, first compound 1 µM
[11] = second compound 0.1 µM, first compound 3.16 µM
[12] = second compound 0.1 µM, first compound 10 µM
[13] = second compound 0.316 µM, first compound 0.0316 µM
[14] = second compound 0.316 µM, first compound 0.1 µM
[15] = second compound 0.316 µM, first compound 0.316 µM
[16] = second compound 0.316 µM, first compound 1 µM
[17] = second compound 0.316 µM, first compound 3.16 µM
[18] = second compound 0.316 µM, first compound 10 µM
[19] = second compound 1 µM, first compound 0.0316 µM
[20] = second compound 1 µM, first compound 0.1 µM
[21] = second compound 1 µM, first compound 0.316 µM
[22] = second compound 1 µM, first compound 1 µM
[23] = second compound 1 µM, first compound 3.16 µM
[24] = second compound 1 µM, first compound 10 µM
[25] = second compound 0.00316 µM, first compound 0.0316 µM
[26] = second compound 0.00316 µM, first compound 0.1 µM
[27] = second compound 0.00316 µM, first compound 0.316 µM
[28] = second compound 0.00316 µM, first compound 1 µM
[29] = second compound 0.00316 µM, first compound 3.16 µM
[30] = second compound 0.00316 µM, first compound 10 µM
[31] = second compound 0.01 µM, first compound 0.0316 µM
[32] = second compound 0.01 µM, first compound 0.1 µM
[33] = second compound 0.01 µM, first compound 0.316 µM
[34] = second compound 0.01 µM, first compound 1 µM
[35] = second compound 0.01 µM, first compound 3.16 µM
[36] = second compound 0.01 µM, first compound 10 µM
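Further: spheroids exposed to agents for seven days before the viability read.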

- IC50 (second compound 0.0316 µM): 317 nM
- IC50 (second compound 0.1 µM): 490 nM
- IC50 (second compound 0.316 µM): 340 nM
- IC50 (second compound 1 µM): 491 nM
- IC50 (second compound 3.16 µM): 383 nM
- IC50 (second compound 10 µM): 454 nM
Compound: CC(C)NCC(C(=O)N1CCN(c2ncnc3c2C(C)CC3O)CC1)c1ccc(Cl)cc1 (stereo not drawn) + CC(Nc1ncnc2nc[nH]c12)c1cc2cccc(Cl)c2c(=O)n1-c1ccccc1
- viability, T/C [1]: 87.3%
- viability, T/C [2]: 75.8%
- viability, T/C [3]: 47.8%
- viability, T/C [4]: 27.4%
- viability, T/C [5]: 10.1%
- viability, T/C [6]: 3.75%
- viability, T/C [7]: 90.7%
- viability, T/C [8]: 79.7%
- viability, T/C [9]: 52.3%
- viability, T/C [10]: 43.7%
- viability, T/C [11]: 12.9%
- viability, T/C [12]: 3.85%
- viability, T/C [13]: 100%
- viability, T/C [14]: 77.7%
- viability, T/C [15]: 50.1%
- viability, T/C [16]: 32.2%
- viability, T/C [17]: 7.64%
- viability, T/C [18]: 5.53%
- viability, T/C [19]: 95.2%
- viability, T/C [20]: 84.8%
- viability, T/C [21]: 64.3%
- viability, T/C [22]: 27.3%
- viability, T/C [23]: 13.8%
- viability, T/C [24]: 3.16%
- viability, T/C (second compound 3.16 µM, first compound 0.0316 µM): 102%
- viability, T/C (second compound 3.16 µM, first compound 0.1 µM): 82.3%
- viability, T/C (second compound 3.16 µM, first compound 0.316 µM): 52.5%
- viability, T/C (second compound 3.16 µM, first compound 1 µM): 30.8%
- viability, T/C (second compound 3.16 µM, first compound 3.16 µM): 12.4%
- viability, T/C (second compound 3.16 µM, first compound 10 µM): 4.48%
- viability, T/C (second compound 10 µM, first compound 0.0316 µM): 87.5%
- viability, T/C (second compound 10 µM, first compound 0.1 µM): 76.7%
- viability, T/C (second compound 10 µM, first compound 0.316 µM): 61.2%
- viability, T/C (second compound 10 µM, first compound 1 µM): 28.4%
- viability, T/C (second compound 10 µM, first compound 3.16 µM): 11%
- viability, T/C (second compound 10 µM, first compound 10 µM): 3.05%

- IC50 (second compound 0.00316 µM): < 31.6 nM
- IC50 (second compound 0.01 µM): < 31.6 nM
- IC50 (second compound 0.0316 µM): < 31.6 nM
- IC50 (second compound 0.1 µM): < 31.6 nM
- IC50 (second compound 0.316 µM): < 31.6 nM
- IC50 (second compound 1 µM): < 31.6 nM
Compound: CC1(C)CCC(Nc2ncc(C(F)(F)F)c(-c3c[nH]c4c(P(C)(C)=O)c(C#N)ccc34)n2)CN1 (stereo not drawn) + CC(Nc1ccc2c(c1)OCCn1cc(N3C(=O)OCC3C(F)F)nc1-2)C(N)=O
- viability, T/C [25]: 21.5%
- viability, T/C [26]: 18.9%
- viability, T/C [27]: 21.4%
- viability, T/C [28]: 22.9%
- viability, T/C [29]: 32.5%
- viability, T/C [30]: 2.76%
- viability, T/C [31]: 28.1%
- viability, T/C [32]: 18.5%
- viability, T/C [33]: 27.8%
- viability, T/C [34]: 25.4%
- viability, T/C [35]: 32.9%
- viability, T/C [36]: 2.41%
- viability, T/C [1]: 16.7%
- viability, T/C [2]: 21.1%
- viability, T/C [3]: 16.9%
- viability, T/C [4]: 19%
- viability, T/C [5]: 23.6%
- viability, T/C [6]: 1.33%
- viability, T/C [7]: 18.6%
- viability, T/C [8]: 15.8%
- viability, T/C [9]: 22.1%
- viability, T/C [10]: 16.2%
- viability, T/C [11]: 22.3%
- viability, T/C [12]: 1.47%
- viability, T/C [13]: 12.8%
- viability, T/C [14]: 15.8%
- viability, T/C [15]: 14.7%
- viability, T/C [16]: 19.9%
- viability, T/C [17]: 18.3%
- viability, T/C [18]: 1.99%
- viability, T/C [19]: 14.1%
- viability, T/C [20]: 13%
- viability, T/C [21]: 14.1%
- viability, T/C [22]: 16.6%
- viability, T/C [23]: 19.3%
- viability, T/C [24]: 1.51%

- IC50 (second compound 0.00316 µM): 4460 nM
- IC50 (second compound 0.01 µM): 3750 nM
- IC50 (second compound 0.0316 µM): 3730 nM
- IC50 (second compound 0.1 µM): 1750 nM
- IC50 (second compound 0.316 µM): < 31.6 nM
- IC50 (second compound 1 µM): < 31.6 nM
Compound: CC1(C)CCC(CN2CCN(c3ccc(C(=O)NS(=O)(=O)c4ccc(NCC5CCOCC5)c([N+](=O)[O-])c4)c(Oc4cnc5[nH]ccc5c4)c3)CC2)=C(c2ccc(Cl)cc2)C1 + COc1c(OCCCN2CCOCC2)ccc2c3n(c(=NC(=O)c4cnc(N)nc4)nc12)CCN3
- viability, T/C [25]: 85.4%
- viability, T/C [26]: 97.5%
- viability, T/C [27]: 97%
- viability, T/C [28]: 96.5%
- viability, T/C [29]: 69.2%
- viability, T/C [30]: 5.16%
- viability, T/C [31]: 92.6%
- viability, T/C [32]: 87.3%
- viability, T/C [33]: 95%
- viability, T/C [34]: 95.5%
- viability, T/C [35]: 58%
- viability, T/C [36]: 4.01%
- viability, T/C [1]: 69%
- viability, T/C [2]: 76.2%
- viability, T/C [3]: 78.8%
- viability, T/C [4]: 79%
- viability, T/C [5]: 58%
- viability, T/C [6]: 3.73%
- viability, T/C [7]: 58.9%
- viability, T/C [8]: 50.6%
- viability, T/C [9]: 49%
- viability, T/C [10]: 61.7%
- viability, T/C [11]: 44.6%
- viability, T/C [12]: 2.56%
- viability, T/C [13]: 12.8%
- viability, T/C [14]: 12.5%
- viability, T/C [15]: 13.7%
- viability, T/C [16]: 14.3%
- viability, T/C [17]: 7.93%
- viability, T/C [18]: 1.71%
- viability, T/C [19]: 1.99%
- viability, T/C [20]: 1.2%
- viability, T/C [21]: 1.79%
- viability, T/C [22]: 1.5%
- viability, T/C [23]: 1.66%
- viability, T/C [24]: 0.72%

- IC50 (second compound 0.00316 µM): > 10000 nM
- IC50 (second compound 0.01 µM): > 10000 nM
- IC50 (second compound 0.0316 µM): > 10000 nM
- IC50 (second compound 0.1 µM): < 31.6 nM
- IC50 (second compound 0.316 µM): < 31.6 nM
- IC50 (second compound 1 µM): < 31.6 nM
Compound: CC(Cn1ccc(-c2ccc(C#N)c(Cl)c2)n1)NC(=O)c1cc(C(C)O)[nH]n1 (stereo not drawn) + COc1c(OCCCN2CCOCC2)ccc2c3n(c(=NC(=O)c4cnc(N)nc4)nc12)CCN3
- viability, T/C [25]: 119%
- viability, T/C [26]: 99.5%
- viability, T/C [27]: 106%
- viability, T/C [28]: 104%
- viability, T/C [29]: 102%
- viability, T/C [30]: 86.3%
- viability, T/C [31]: 98.8%
- viability, T/C [32]: 104%
- viability, T/C [33]: 92.5%
- viability, T/C [34]: 113%
- viability, T/C [35]: 105%
- viability, T/C [36]: 80%
- viability, T/C [1]: 69.6%
- viability, T/C [2]: 82.7%
- viability, T/C [3]: 85.2%
- viability, T/C [4]: 86.9%
- viability, T/C [5]: 88.5%
- viability, T/C [6]: 67.5%
- viability, T/C [7]: 48.4%
- viability, T/C [8]: 52.5%
- viability, T/C [9]: 52%
- viability, T/C [10]: 57.1%
- viability, T/C [11]: 58.1%
- viability, T/C [12]: 51.9%
- viability, T/C [13]: 11.8%
- viability, T/C [14]: 18.3%
- viability, T/C [15]: 15.1%
- viability, T/C [16]: 20.9%
- viability, T/C [17]: 15.2%
- viability, T/C [18]: 18.2%
- viability, T/C [19]: 2.74%
- viability, T/C [20]: 1.7%
- viability, T/C [21]: 1.89%
- viability, T/C [22]: 2.26%
- viability, T/C [23]: 2.15%
- viability, T/C [24]: 2.19%
